Laboratory results: patent US4459291A, “Compounds having antibiotic activity, processes for their preparation, pharmaceutical compositions containing them and their use as medicaments” (priority 1981, dated 1984)
≈ marks a conversion by molar mass, not a printed value. Entries after “also recorded” stand apart in the source; their conditions may differ. Like-named read-outs stand apart in the source and are kept apart here.

Tests used:
[1] = test system: Salmonella typhosa ATCC 9992; assay: Antibacterial activity by agar dilution method at pH 7.0; format: cell-based; details: Salmonella enterica
[2] = test system: Bacillus subtilis No. 10707; assay: as above; format: cell-based
Escherichia coli ATCC 26 = assay: as above; format: cell-based
LD50 (acute toxicity) = details: in vivo
[3] = test system: Staphylococcus aureus ATCC 6538P; assay: Antibacterial activity by agar dilution method at pH 7.0; format: cell-based; details: ATCC6538P
[4] = test system: Klebsiella pneumoniae ATCC 10031; assay: as above; format: cell-based
Solubility = details: solvents named in the value

`COc1c2c(c(O)c3c4c(c(C)cc13)C1OC3(C(OC)OC)OC1C(O)(O4)C31CO1)C(=O)C(O)CC2OC1CC(C)(O)C(OC(C)=O)C(C)O1` (stereo not shown) [DC-45-A1] gave an MIC ([1]; pH 7, read-out: Minimum Inhibitory Concentration) of 50 µg/mL (≈ 71 µM), an MIC ([2]; Bacillus subtilis, NO.10707, pH 7, read-out: Minimum Inhibitory Concentration) of 0.04 µg/mL (≈ 0.0568 µM) and an MIC (Escherichia coli ATCC 26; Escherichia coli, ATCC26, pH 7, read-out: Minimum Inhibitory Concentration) of 12 µg/mL (≈ 17 µM). The LD50 (LD50 (acute toxicity); ip) was 0.375 mg/kg, the LD50 (LD50 (acute toxicity); iv) was 0.375 mg/kg and the MIC ([3]; Staphylococcus aureus, pH 7, read-out: Minimum Inhibitory Concentration) was 0.4 µg/mL (≈ 0.568 µM). The MIC ([4]; Klebsiella pneumoniae, ATCC10031, pH 7, read-out: Minimum Inhibitory Concentration) was 0.4 µg/mL (≈ 0.568 µM) and the Solubility (Solubility) was “Soluble in methanol, ethanol, acetone, ethyl acetate and chloroform; also recorded: soluble with difficulty in benzene and aqueous ether; also recorded: insoluble in n-hexane”.

Compound `COc1c2c(c(O)c3c4c(c(C)cc13)C1OC3(C(OC)OC)OC1C(O)(O4)C31CO1)C(=O)C(O)CC2O` (stereo not shown) [DC-45-A2] has an MIC ([1]; Salmonella typhosa ATCC 9992, agar dilution, pH 7.0, read-out: Minimum Inhibitory Concentration) of 50 µg/mL (≈ 96.4 µM), an MIC ([2]; Bacillus subtilis No. 10707, agar dilution, pH 7.0, read-out: Minimum Inhibitory Concentration) of 100 µg/mL (≈ 193 µM) and an MIC (Escherichia coli ATCC 26; ATCC26, Escherichia coli ATCC 26, agar dilution, pH 7.0, read-out: Minimum Inhibitory Concentration) of 25 µg/mL (≈ 48.2 µM). For the same compound, the LD50 (LD50 (acute toxicity); ip) was 5.8 mg/kg, the LD50 (LD50 (acute toxicity); iv) was 14 mg/kg and the MIC ([3]; Staphylococcus aureus ATCC 6538P, agar dilution, pH 7.0, read-out: Minimum Inhibitory Concentration) was 100 µg/mL (≈ 193 µM). For the same compound, the MIC ([4]; ATCC10031, Klebsiella pneumoniae ATCC 10031, agar dilution, pH 7.0, read-out: Minimum Inhibitory Concentration) was 12 µg/mL (≈ 23.1 µM) and the Solubility (Solubility) was “Soluble in methanol, ethanol, acetone, ethyl acetate and chloroform; also recorded: soluble with difficulty in benzene, ether and water; also recorded: insoluble in n-hexane”.
